Experiments:
Format in all cases: functional
Mamestra brassicae = test: Insecticidal activity against last-instar Mamestra brassicae larvae assessed as normal pupae injected at 1 ug/larvae (reference value: 90%)
Spodoptera litura [1] = test: Insecticidal activity against last-instar Spodoptera litura larvae assessed as larval pupal intermediate injected at 10 ug/larvae (reference value: […])
Spodoptera litura [2] = test: Insecticidal activity against last-instar Spodoptera litura larvae assessed as normal pupae injected at 0.4 ug/larvae (reference value: 100%)

Molecule OCC1=C[C@H](N[C@H]2C[C@H](CO)[C@@H](O)[C@H](O)[C@H]2O)[C@H](O)[C@@H](O)[C@@H]1O [VALIDOXYLAMINE A] has an Activity (Mamestra brassicae) of 27%, an Activity (Spodoptera litura [1]) of 25% and an Activity (Spodoptera litura [2]) of 85%.

From ChEMBL document CHEMBL3044761, “Lethal Activity of a Trehalase Inhibitor, Validoxylamine A, against Mamestra brassicae and Spodoptera litura” (J Pestic Sci, 1994)
